Measured values published in the supplement of paper PMC10627819.

What was measured:
B. subtilis 168 [1] = experiment: fitness (endpoint OD595 vs no drug) (fraction); higher = more growth
In short: (§1)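 Fitness was defined as the optical density at the transition into stationary phase relative to the robust mean of no-drug control wells. Values were capped at 1. Cultures were started at OD595 0.01 in 384-well plates (30 µl, or 55 µl for S. pneumoniae) in TSB, LB Lennox or CY at 37 °C. OD595 was recorded every 30 min over 14 h, with the first reading subtracted as background.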

S. pneumoniae D39V [2] = experiment: as above
In short: as §1

S. aureus Newman [3] = experiment: as above
In short: as §1

S. aureus DSM 20231 [4] = experiment: as above
In short: as §1

B. subtilis 168 [5] = experiment: Bliss interaction score (quartile over a dose matrix) (fitness difference); higher = more antagonism (negative = synergy)
In short: (§2)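 At entry into stationary phase, OD595 was recorded and divided by the robust mean of the no-drug wells on that plate, with any value above 1 set to 1. This gives the fitness measure used throughout. Single-drug fitness was inferred from combination data, and the Bliss score, observed minus product-expected fitness, is shown as quartiles across technical, biological and donor/recipient replicates.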

S. pneumoniae D39V [6] = experiment: as above
In short: as §2

S. aureus Newman [7] = experiment: as above
In short: as §2

S. aureus DSM 20231 [8] = experiment: as above
In short: as §2
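Throughout, for Bliss interaction score (quartile over a dose matrix): first quartile when negative (synergy) and third quartile when positive (antagonism).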

C[n+]1ccc(-c2cc[n+](C)cc2)cc1 [Paraquat] + CC1=C\[C@@H](O)CC(=O)Cc2nc(co2)C(=O)N2CCC=C2C(=O)O[C@H](C(C)C)[C@H](C)/C=C/C(=O)NC\C=C\1 [Virginiamycin M1]
fitness
Settings	first compound 1.25 µg/mL	first compound 1.5 µg/mL	first compound 2.5 µg/mL	first compound 3 µg/mL	first compound 5 µg/mL	first compound 6 µg/mL
B. subtilis 168 [1], partner 0.0625 µg/mL	0.951	–	0.934	–	0.819	–
B. subtilis 168 [1], partner 0.125 µg/mL	0.918	–	0.934	–	0.856	–
B. subtilis 168 [1], partner 0.25 µg/mL	0.93	–	0.95	–	0.893	–
S. aureus DSM 20231 [4], partner 0.0625 µg/mL	0.912	–	0.897	–	0.872	–
S. aureus DSM 20231 [4], partner 0.125 µg/mL	0.967	–	0.981	–	0.936	–
S. aureus DSM 20231 [4], partner 0.25 µg/mL	0.935	–	0.882	–	0.934	–
S. pneumoniae D39V [2], partner 0.5 µg/mL	–	0.987	–	0.988	–	0.991
S. pneumoniae D39V [2], partner 1 µg/mL	–	0.991	–	0.978	–	0.967
S. pneumoniae D39V [2], partner 2 µg/mL	–	0.937	–	0.93	–	0.897

fitness, one replicate
Settings	first compound 1.25 µg/mL	first compound 1.5 µg/mL	first compound 2.5 µg/mL	first compound 3 µg/mL	first compound 5 µg/mL	first compound 6 µg/mL
S. aureus DSM 20231 [4], partner 0.5 µg/mL	0.831	–	0.901	–	0.858	–
S. aureus DSM 20231 [4], partner 1 µg/mL	0.781	–	0.848	–	0.898	–
S. aureus Newman [3], partner 0.0625 µg/mL	0.883	–	0.93	–	0.863	–
S. aureus Newman [3], partner 0.125 µg/mL	0.885	–	0.934	–	0.894	–
S. aureus Newman [3], partner 0.25 µg/mL	0.868	–	0.9	–	0.929	–
S. aureus Newman [3], partner 0.5 µg/mL	0.862	–	0.852	–	0.908	–
S. aureus Newman [3], partner 1 µg/mL	0.949	–	0.959	–	0.971	–
S. aureus Newman [3], partner 2 µg/mL	0.862	–	0.848	–	0.855	–
S. pneumoniae D39V [2], partner 0.15 µg/mL	–	≥ 1	–	≥ 1	–	0.975
S. pneumoniae D39V [2], partner 0.3 µg/mL	–	≥ 1	–	≥ 1	–	0.948

Settings	Bliss interaction score
B. subtilis 168 [5]	0.0473
S. aureus DSM 20231 [8]	0.0744
S. aureus Newman [7]	0.0334
S. pneumoniae D39V [6]	-0.0275

C[n+]1ccc(-c2cc[n+](C)cc2)cc1 [Paraquat] + CCN(CC)CCOC(=O)c1ccc(N)cc1 [Procaine]
fitness
Settings	first compound 1.25 µg/mL	first compound 1.5 µg/mL	first compound 2.5 µg/mL	first compound 3 µg/mL	first compound 5 µg/mL	first compound 6 µg/mL
B. subtilis 168 [1], partner 85.5 µg/mL	0.954	–	0.877	–	0.813	–
B. subtilis 168 [1], partner 171 µg/mL	0.943	–	0.935	–	0.837	–
B. subtilis 168 [1], partner 342 µg/mL	0.89	–	0.89	–	0.812	–
S. aureus DSM 20231 [4], partner 85.5 µg/mL	0.906	–	0.944	–	0.95	–
S. aureus DSM 20231 [4], partner 171 µg/mL	0.936	–	0.981	–	0.996	–
S. aureus DSM 20231 [4], partner 342 µg/mL	0.966	–	0.97	–	0.98	–
S. aureus Newman [3], partner 85.5 µg/mL	0.959	–	0.917	–	0.948	–
S. aureus Newman [3], partner 171 µg/mL	0.956	–	0.909	–	0.951	–
S. aureus Newman [3], partner 342 µg/mL	0.944	–	0.947	–	0.937	–
S. pneumoniae D39V [2], partner 85.5 µg/mL	–	≥ 1	–	≥ 1	–	≥ 1
S. pneumoniae D39V [2], partner 171 µg/mL	–	≥ 1	–	0.998	–	≥ 1
S. pneumoniae D39V [2], partner 342 µg/mL	–	0.988	–	0.971	–	0.951

Settings	Bliss interaction score
B. subtilis 168 [5]	0.0621
S. aureus DSM 20231 [8]	0.0567
S. aureus Newman [7]	0.0516
S. pneumoniae D39V [6]	0.0315

C[n+]1ccc(-c2cc[n+](C)cc2)cc1 [Paraquat] + CN1C2=CC=CC=C2N=C3C1=CC=CC3=O [Pyocyanin]
fitness
Settings	first compound 1.25 µg/mL	first compound 1.5 µg/mL	first compound 2.5 µg/mL	first compound 3 µg/mL	first compound 5 µg/mL	first compound 6 µg/mL
B. subtilis 168 [1], partner 1.25 µg/mL	0.918	–	0.903	–	0.802	–
B. subtilis 168 [1], partner 2.5 µg/mL	0.866	–	0.838	–	0.673	–
B. subtilis 168 [1], partner 5 µg/mL	0.721	–	0.707	–	0.534	–
S. aureus DSM 20231 [4], partner 1.25 µg/mL	0.918	–	0.931	–	0.905	–
S. aureus DSM 20231 [4], partner 2.5 µg/mL	0.891	–	0.879	–	0.858	–
S. aureus DSM 20231 [4], partner 5 µg/mL	0.627	–	0.647	–	0.595	–
S. aureus Newman [3], partner 1.25 µg/mL	0.838	–	0.799	–	0.825	–
S. aureus Newman [3], partner 2.5 µg/mL	0.821	–	0.776	–	0.751	–
S. aureus Newman [3], partner 5 µg/mL	0.401	–	0.382	–	0.366	–
S. pneumoniae D39V [2], partner 0.325 µg/mL	–	≥ 1	–	≥ 1	–	≥ 1
S. pneumoniae D39V [2], partner 0.65 µg/mL	–	0.954	–	0.97	–	0.955

S. pneumoniae D39V [2], partner 1.3 µg/mL, one replicate
Settings	fitness
first compound 1.5 µg/mL	0.528
first compound 3 µg/mL	0.597
first compound 6 µg/mL	0.601

Settings	Bliss interaction score
B. subtilis 168 [5]	-0.0646
S. aureus DSM 20231 [8]	-0.0554
S. aureus Newman [7]	0.0765
S. pneumoniae D39V [6]	-0.0783

C[n+]1ccc(-c2cc[n+](C)cc2)cc1 [Paraquat] + CN(N=O)C(=O)N[C@@H](C=O)[C@@H](O)[C@H](O)[C@H](O)CO [Streptozotocin]
fitness, B. subtilis 168 [1], one replicate
Settings	first compound 1.25 µg/mL	first compound 2.5 µg/mL	first compound 5 µg/mL
partner 0.15 µg/mL	≥ 1	≥ 1	0.845
partner 0.3 µg/mL	≥ 1	0.964	0.851
partner 0.6 µg/mL	0.945	0.956	0.776

fitness
Settings	first compound 1.25 µg/mL	first compound 1.5 µg/mL	first compound 2.5 µg/mL	first compound 3 µg/mL	first compound 5 µg/mL	first compound 6 µg/mL
S. aureus DSM 20231 [4], partner 0.15 µg/mL	0.865	–	0.835	–	0.774	–
S. aureus DSM 20231 [4], partner 0.3 µg/mL	0.795	–	0.842	–	0.758	–
S. aureus DSM 20231 [4], partner 0.6 µg/mL	0.679	–	0.689	–	0.636	–
S. aureus Newman [3], partner 0.15 µg/mL	0.781	–	0.769	–	0.727	–
S. aureus Newman [3], partner 0.3 µg/mL	0.66	–	0.654	–	0.637	–
S. aureus Newman [3], partner 0.6 µg/mL	0.523	–	0.536	–	0.508	–
S. pneumoniae D39V [2], partner 1.2 µg/mL	–	0.989	–	0.983	–	0.969
S. pneumoniae D39V [2], partner 2.4 µg/mL	–	0.97	–	0.926	–	0.977
S. pneumoniae D39V [2], partner 4.8 µg/mL	–	0.944	–	0.955	–	0.933

Settings	Bliss interaction score
B. subtilis 168 [5]	0.0356
S. aureus DSM 20231 [8]	-0.0445
S. aureus Newman [7]	-0.0522
S. pneumoniae D39V [6]	0.0357

C[n+]1ccc(-c2cc[n+](C)cc2)cc1 [Paraquat] + CN[C@@H]1[C@H](O)[C@H](NC)[C@H]2O[C@@]3(O)C(=O)C[C@@H](C)O[C@H]3O[C@@H]2[C@H]1O [Spectinomycin]
fitness
Settings	first compound 1.25 µg/mL	first compound 1.5 µg/mL	first compound 2.5 µg/mL	first compound 3 µg/mL	first compound 5 µg/mL	first compound 6 µg/mL
B. subtilis 168 [1], partner 2 µg/mL	0.97	–	0.989	–	0.902	–
B. subtilis 168 [1], partner 4 µg/mL	0.986	–	0.964	–	0.847	–
B. subtilis 168 [1], partner 8 µg/mL	0.877	–	0.882	–	0.847	–
S. aureus DSM 20231 [4], partner 4 µg/mL	0.946	–	0.909	–	0.844	–
S. aureus DSM 20231 [4], partner 8 µg/mL	0.913	–	0.844	–	0.817	–
S. aureus DSM 20231 [4], partner 16 µg/mL	0.837	–	0.874	–	0.758	–
S. aureus Newman [3], partner 4 µg/mL	0.857	–	0.85	–	0.825	–
S. aureus Newman [3], partner 8 µg/mL	0.872	–	0.825	–	0.906	–
S. aureus Newman [3], partner 16 µg/mL	0.89	–	0.849	–	0.833	–
S. pneumoniae D39V [2], partner 4 µg/mL	–	0.964	–	0.976	–	0.995
S. pneumoniae D39V [2], partner 8 µg/mL	–	0.958	–	0.969	–	0.951

fitness, one replicate
Settings	first compound 1.25 µg/mL	first compound 1.5 µg/mL	first compound 2.5 µg/mL	first compound 3 µg/mL	first compound 5 µg/mL	first compound 6 µg/mL
S. aureus DSM 20231 [4], partner 32 µg/mL	0.669	–	0.713	–	0.735	–
S. aureus DSM 20231 [4], partner 64 µg/mL	0.0748	–	0.0594	–	0.0636	–
S. aureus Newman [3], partner 32 µg/mL	0.62	–	0.6	–	0.563	–
S. aureus Newman [3], partner 64 µg/mL	0.0529	–	0.0827	–	0.106	–
S. pneumoniae D39V [2], partner 16 µg/mL	–	0.851	–	0.856	–	0.913

Settings	Bliss interaction score
B. subtilis 168 [5]	0.0537
S. aureus DSM 20231 [8]	-0.046
S. aureus Newman [7]	0.0596
S. pneumoniae D39V [6]	0.0349
